Measurements as given in ChEMBL document CHEMBL1149016, “Plant anticancer agents, XLII. Cytotoxic constituents from Wikstroemia elliptica” (1986).
≈ marks a conversion by molar mass, not a printed value.

test system: P388; test: Cytotoxicity against mouse P388 cells; format: functional; details: read-out: ED50 (the source's name)

Row | Compound | EC50
1 | COc1cc(C[C@@H]2CO[C@@H](c3cc(OC)c(O)c(OC)c3)[C@@H]2CO)ccc1O (racemic) | 0.33 µg/mL (≈ 0.845 µM)
2 | COc1cc([C@H]2OC[C@H]3[C@@H]2CO[C@@H]3c2cc(OC)c(O)c(OC)c2)cc(OC)c1O (racemic) [SYRINGARESINOL] | 0.56 µg/mL (≈ 1.34 µM)
3 | COc1cc2cc(Oc3ccc4ccc(=O)oc4c3)c(=O)oc2cc1O [DAPHNORETIN] | 3.4 µg/mL (≈ 9.65 µM)
4 | O=c1ccc2ccc(O)cc2o1 [UMBELLIFERONE] | 3.1 µg/mL (≈ 19.1 µM)
5 | COc1cc(C[C@H]2CO[C@H](c3ccc(O)c(OC)c3)[C@H]2CO)ccc1O (racemic) [LARICIRESINOL] | 0.38 µg/mL (≈ 1.05 µM)
